How the values were obtained:
[1] = Storage stability: chromatographic purity (HPLC) of crystalline Form II on storage; assay type: physicochemical; conditions: for Chromatographic Purity (1M storage at 25° C. ± 2° C./60% ± 5% RH) / Chromatographic Purity after 1M storage (at 25° C.±2° C./60%±5% RH) / Chromatographic Purity (1M storage at 40° C. ± 2° C./75% ± 5% RH) / Chromatographic Purity after 1M storage (at 40° C.±2° C./75%±5% RH): 1 month storage; for Chromatographic Purity (Initial): before storage
From the text: In an embodiment of the first aspect, the pure crystalline Form II of the L-malic acid salt of sunitinib has a purity of not less than 97.0% as measured by a chromatographic technique such as High-Performance Liquid Chromatography (HPLC).
Table 1 below compares the chromatographic purity of crystalline Form II of an L-malic acid salt of sunitinib prepared without using an anti-oxidant (as per Example 8), and pure crystalline Form II of an L-malic acid salt of sunitinib prepared using an anti-oxidant (as per Examples 1, 2, and 4), on storage at 25° C.±2° C. and 40° C.±2° C. at a relative humidity of 60%±5% and 75%±5%, respectively, for 1 month and above.

[2] = cited from earlier work

Structure (SMILES)	Chromatographic Purity (1M storage at 25° C. ± 2° C./60% ± 5% RH) ([1]; 25° C.±2° C., 60%±5% RH)	Chromatographic Purity after 1M storage (at 25° C.±2° C./60%±5% RH) ([1]; 25° C.±2° C., 60%±5% RH)	Chromatographic Purity (1M storage at 40° C. ± 2° C./75% ± 5% RH) ([1]; 40° C.±2° C., 75%±5% RH)	Chromatographic Purity after 1M storage (at 40° C.±2° C./75%±5% RH) ([1]; 40° C.±2° C., 75%±5% RH)	Chromatographic Purity (Initial) [1]	Chromatographic Purity (Initial) ([1]; example text)	Chromatographic Purity (1M storage at 25° C. ± 2° C./60% ± 5% RH) ([1]; 25° C. ± 2° C., 60% ± 5% RH, listed as Example 8)	Chromatographic Purity (1M storage at 40° C. ± 2° C./75% ± 5% RH) ([1]; 40° C. ± 2° C., 75% ± 5% RH, listed as Example 8)	Chromatographic Purity (Initial) ([1]; listed as Example 8)	hygroscopicity ([2]; disclosed in WO 2009/104021)	form conversion and moisture absorption on storage ([2]; disclosed in WO 2011/061613)
CCN(CC)CCNC(=O)c1c(C)[nH]c(/C=C2\C(=O)Nc3ccc(F)cc32)c1C.O=C(O)C[C@H](O)C(=O)O [Example 1, butanedioic acid, hydroxy-, (2S)-, compound with N-[2-(diethylamino)ethyl]-5-[(Z)-(5-fluoro-1,2-dihydro-2-oxo-3H-indol-3-ylidine)methyl]-2,4-dimethyl-1H-pyrrole-3-carboxamide (1:1)]	98.4% w/w	98.4%	97.0% w/w	97.0%	99.1% w/w	99.10%	–	–	–	–	–
CCN(CC)CCNC(=O)c1c(C)[nH]c(/C=C2\C(=O)Nc3ccc(F)cc32)c1C.O=C(O)C[C@H](O)C(=O)O [Example 2, butanedioic acid, hydroxy-, (2S)-, compound with N-[2-(diethylamino)ethyl]-5-[(Z)-(5-fluoro-1,2-dihydro-2-oxo-3H-indol-3-ylidine)methyl]-2,4-dimethyl-1H-pyrrole-3-carboxamide (1:1)]	98.7% w/w	98.7%	97.3% w/w	97.3%	99.7% w/w	99.70%	–	–	–	–	–
CCN(CC)CCNC(=O)c1c(C)[nH]c(/C=C2\C(=O)Nc3ccc(F)cc32)c1C.O=C(O)C[C@H](O)C(=O)O [Example 4, butanedioic acid, hydroxy-, (2S)-, compound with N-[2-(diethylamino)ethyl]-5-[(Z)-(5-fluoro-1,2-dihydro-2-oxo-3H-indol-3-ylidine)methyl]-2,4-dimethyl-1H-pyrrole-3-carboxamide (1:1)]	99.7% w/w	99.70%	99.3% w/w	99.3%	99.7% w/w	99.70%	–	–	–	–	–
CCN(CC)CCNC(=O)c1c(C)[nH]c(/C=C2\C(=O)Nc3ccc(F)cc32)c1C.O=C(O)C[C@H](O)C(=O)O [Example 7, butanedioic acid, hydroxy-, (2S)-, compound with N-[2-(diethylamino)ethyl]-5-[(Z)-(5-fluoro-1,2-dihydro-2-oxo-3H-indol-3-ylidine)methyl]-2,4-dimethyl-1H-pyrrole-3-carboxamide (1:1)]	–	87.4%	–	87.8%	–	99.50%	87.4% w/w	87.8% w/w	99.5% w/w	–	–
CCN(CC)CCNC(=O)c1c(C)[nH]c(/C=C2\C(=O)Nc3ccc(F)cc32)c1C.O=C(O)C[C@H](O)C(=O)O [Form II of sunitinib L-malate]	–	–	–	–	–	–	–	–	–	hygroscopic	–
CCN(CC)CCNC(=O)c1c(C)[nH]c(/C=C2\C(=O)Nc3ccc(F)cc32)c1C.O=C(O)C[C@H](O)C(=O)O [stable crystalline Form II]	–	–	–	–	–	–	–	–	–	–	does not convert to any other form or absorb moisture on storage

— US9604968B2, “Pure crystalline Form II of L-malic acid salt of sunitinib and processes for its preparation” (RANBAXY LABORATORIES LIMITED, priority 2013, dated 2017)
